Data reported in patent US11547681B2, “N-acylethanolamide derivatives and uses thereof” (ELIEM THERAPEUTICS, INC., priority 2016, dated 2023).

Test: in vitro
Details: for Measured concentration of analyte PEA, 0 min / Measured concentration of analyte PEA, 10 min / Measured concentration of analyte PEA, 20 min / Measured concentration of analyte PEA, 30 min / Measured concentration of analyte PEA, 60 min / % Remaining of Initial, 0 min / % Remaining of Initial, 10 min / % Remaining of Initial, 20 min / % Remaining of Initial, 30 min / % Remaining of Initial, 60 min: 1 μM; for % Remaining of Initial, 0 min / % Remaining of Initial, 10 min / % Remaining of Initial, 20 min / % Remaining of Initial, 30 min / % Remaining of Initial, 60 min / microsomal CLint at 1 μM / half-life at 1 μM: microsomes; for % Remaining of Initial, 0 min: 0 h; for % Remaining of Initial, 30 min: 0.5 h; for % Remaining of Initial, 60 min: 1 h
Experimental: The reaction mixture, minus cofactors, was prepared as described below. The test article was added into the reaction mixture at a final concentration of 1 μM. […] An aliquot of the reaction mixture (without cofactor) was equilibrated in a shaking water bath at 37° C. for 3 minutes. The reaction was initiated by the addition of cofactor, and the mixture was incubated in a shaking water bath at 37° C. Aliquots (100 μL) were withdrawn at 0, 10, 20, 30, and 60 minutes. All samples were immediately combined with 400 μL of ice-cold 50/50 acetonitrile/H2O containing 0.1% formic acid and internal standard to terminate the reaction. The samples were then mixed and centrifuged to precipitate proteins. Calibration standards were prepared in matched matrix. All samples and standards were assayed by LC-MS/MS using electrospray ionization for both the dosed prodrug I-9 and the expected drug (PEA). Analytical conditions are outlined in Appendix 4-1. The test article concentration at each time point was compared to the test article concentration at time 0 to determine the percent remaining at each time point. Half-lives were calculated using GraphPad software, fitting to a single-phase exponential decay equation.
Reaction mixture, minus cofactors, was prepared as described below. Test article was added into the reaction mixture at a final concentration of 1 μM. […] An aliquot of the reaction mixture (without cofactor) was equilibrated in a shaking water bath at 37° C. for 3 minutes. The reaction was initiated by the addition of cofactor, and the mixture was incubated in a shaking water bath at 37° C. Aliquots (100 μL) were withdrawn at 0, 10, 20, 30, and 60 minutes. Test article samples were immediately combined with 300 μL of ice-cold acetonitrile containing 1% formic acid. Control samples were immediately combined with 400 μL of ice-cold 50/50 acetonitrile (ACN)/dH2O containing 0.1% formic acid and internal standard to terminate the reaction. Samples were then mixed and centrifuged to precipitate proteins. Calibration standards were prepared in matched matrix. Samples and standards were assayed by LC-MS/MS using electrospray ionization for both dosed prodrug and expected drug (PEA). Analytical conditions are outlined in Appendix 8-1. Test article concentration at each time point was compared to test article concentration at time 0 to determine the percent remaining at each time point. Half-lives were calculated using GraphPad software, fitting to a single-phase exponential decay equation.
Reaction mixture, minus cofactors, was prepared as described below. Test article was added into the reaction mixture at a final concentration of 1 μM. […] An aliquot of the reaction mixture (without cofactor) was equilibrated in a shaking water bath at 37° C. for 5 minutes. Reaction was initiated by the addition of cofactor, and the mixture was incubated in a shaking water bath at 37° C. Aliquots (100 μL) were withdrawn at 0, 10, 20, 30, and 60 minutes. Test article samples were immediately combined with 300 μL of ice-cold acetonitrile containing 1% formic acid. Control samples were immediately combined with 400 μL of ice-cold 50/50 acetonitrile (ACN)/dH2O containing 0.1% formic acid and internal standard to terminate the reaction. Samples were then mixed and centrifuged to precipitate proteins. Calibration standards were prepared in matched matrix. Samples and standards were assayed by LC-MS/MS using electrospray ionization for both the dosed prodrug and the expected drug (PEA). Analytical conditions are outlined in Appendix 10-1. Test article concentration at each time point was compared to the test article concentration at time 0 to determine the percent remaining at each time point. Half-lives were calculated using GraphPad software, fitting to a single-phase exponential decay equation.
Reaction mixture, minus cofactors, was prepared as described below. Test article was added into the reaction mixture at a final concentration of 1 μM.

[1] = male, Sprague-Dawley, rat, Half-life
[2] = both, human, calculated value in parentheses
[3] = both, human, Calculated half-life (in parentheses)
[4] = male, Sprague-Dawley, rat, calculated value in parentheses
[5] = male, Sprague-Dawley, rat, Calculated half-life (in parentheses)

Row | SMILES | Measured concentration of analyte PEA, 0 min (both, human) [µM] | Measured concentration of analyte PEA, 10 min (both, human) [µM] | Measured concentration of analyte PEA, 20 min (both, human) [µM] | Measured concentration of analyte PEA, 30 min (both, human) [µM] | Measured concentration of analyte PEA, 60 min (both, human) [µM] | % Remaining of Initial, 0 min (both, human) [%] | % Remaining of Initial, 10 min (both, human) [%] | % Remaining of Initial, 20 min (both, human) [%] | % Remaining of Initial, 30 min (both, human) [%] | % Remaining of Initial, 60 min (both, human) [%] | microsomal CLint at 1 μM (both, human) [µL/min/mg] | half-life at 1 μM (both, human, Half-life) [h] | Measured concentration of analyte PEA, 0 min (male, Sprague-Dawley, rat) [µM] | Measured concentration of analyte PEA, 10 min (male, Sprague-Dawley, rat) [µM] | Measured concentration of analyte PEA, 20 min (male, Sprague-Dawley, rat) [µM] | Measured concentration of analyte PEA, 30 min (male, Sprague-Dawley, rat) [µM] | Measured concentration of analyte PEA, 60 min (male, Sprague-Dawley, rat) [µM] | % Remaining of Initial, 0 min (male, Sprague-Dawley, rat) [%] | % Remaining of Initial, 10 min (male, Sprague-Dawley, rat) [%] | % Remaining of Initial, 20 min (male, Sprague-Dawley, rat) [%] | other results
1 | CCCCCCCCCCCCCCCC(=O)NCCOC(=O)CCC [Compound I-2] | 0.15 | 0.23 | 0.19 | 0.15 | 0.071 | 100 | 10 | 1.6 | <1.0 | <1.0 | 451 | 0.0517 | 0.40 | 0.11 | 0.028 | 0.0083 | 0 | 100 | <1.0 | <1.0 | % Remaining of Initial, 30 min (male, Sprague-Dawley, rat): <1.0%; % Remaining of Initial, 60 min (male, Sprague-Dawley, rat): <1.0%; microsomal CLint at 1 μM (male, Sprague-Dawley, rat): > 1380 µL/min/mg; half-life at 1 μM [1]: < 0.0167 h
2 | CCCCCCCCCCCCCCCC(=O)NCCOC(=O)CCC(=O)OCC(COC(=O)CCCCCCC)OC(=O)CCCCCCC (stereo not drawn) [Compound I-3, PEA-Succinate-Glycerol-Di-Caprylic] | 0 | 0.026 | 0.017 | 0.019 | 0.027 | 100 | 83 | 79 | 74 | 53 | < 23.1 | > 1 | 0.032 | 0.039 | 0.018 | 0.0067 | 0 | 100 | 81 | 88 | microsomal CLint at 1 μM [2]: 20 µL/min/mg; half-life at 1 μM [3]: 1.15 h; % Remaining of Initial, 30 min (male, Sprague-Dawley, rat): 72%; % Remaining of Initial, 60 min (male, Sprague-Dawley, rat): 68%; microsomal CLint at 1 μM (male, Sprague-Dawley, rat): < 23.1 µL/min/mg; microsomal CLint at 1 μM [4]: 12.4 µL/min/mg; half-life at 1 μM [5]: 1.87 h; half-life at 1 μM [1]: > 1 h
3 | CC/C=C\C/C=C\C/C=C\C/C=C\C/C=C\CCCC(=O)OCCNC(=O)CCCCCCCCCCCCCCC [Compound I-5] | 0.014 | 0.020 | 0.025 | 0.022 | 0.016 | 100 | 90 | 82 | 79 | 62 | < 23.1 | > 1 | 0.034 | 0.033 | 0.015 | 0.015 | 0.0027 | 100 | 77 | 70 | microsomal CLint at 1 μM [2]: 15.4 µL/min/mg; half-life at 1 μM [3]: 1.5 h; % Remaining of Initial, 30 min (male, Sprague-Dawley, rat): 69%; % Remaining of Initial, 60 min (male, Sprague-Dawley, rat): 57%; microsomal CLint at 1 μM (male, Sprague-Dawley, rat): < 23.1 µL/min/mg; microsomal CLint at 1 μM [4]: 18.6 µL/min/mg; half-life at 1 μM [5]: 1.25 h; half-life at 1 μM [1]: > 1 h
4 | CCCCC/C=C\C/C=C\CCCCCCCC(=O)OCCNC(=O)CCCCCCCCCCCCCCC [Compound I-6] | 0 | 0 | 0 | 0 | 0 | 100 | 82 | 58 | 66 | 68 | < 23.1 | > 1 | 0.14 | 0.064 | 0.017 | 0.0098 | 0.0012 | 100 | 68 | 67 | microsomal CLint at 1 μM [2]: 14.3 µL/min/mg; half-life at 1 μM [3]: 1.62 h; % Remaining of Initial, 30 min (male, Sprague-Dawley, rat): 62%; % Remaining of Initial, 60 min (male, Sprague-Dawley, rat): 53%; microsomal CLint at 1 μM (male, Sprague-Dawley, rat): < 23.1 µL/min/mg; microsomal CLint at 1 μM [4]: 21.9 µL/min/mg; half-life at 1 μM [5]: 1.05 h; half-life at 1 μM [1]: > 1 h
